Reference: paper PMC11602622, “Evolution of queen pheromone receptor tuning in four honeybee species (Hymenoptera, Apidae, Apis)” (iScience, 2024)
Substitutions are numbered along the chain they refer to.

How the values were obtained:
AmelOR11 = molecular target: T1, AmelOR11 (Apis mellifera, UniProt A0A7M6UWX0); assay: transcuticular GCaMP6m calcium imaging of Drosophila antenna, dose-response; format: cell-based; settings: agonist; airborne odorant, unit is dose loaded on filter paper, not a concentration; 1 s stimulus; solvent 2-propanol
T1 construct: gene Or11; full-length ORF, Drosophila codon-optimized synthetic gene (pUAST.attB, locus 51C); expressed in Drosophila at1 OSNs in place of DmelOR67d, with endogenous fly Orco and GCaMP6m; same length as the other OR11
T1 sequence (A0A7M6UWX0 1-394): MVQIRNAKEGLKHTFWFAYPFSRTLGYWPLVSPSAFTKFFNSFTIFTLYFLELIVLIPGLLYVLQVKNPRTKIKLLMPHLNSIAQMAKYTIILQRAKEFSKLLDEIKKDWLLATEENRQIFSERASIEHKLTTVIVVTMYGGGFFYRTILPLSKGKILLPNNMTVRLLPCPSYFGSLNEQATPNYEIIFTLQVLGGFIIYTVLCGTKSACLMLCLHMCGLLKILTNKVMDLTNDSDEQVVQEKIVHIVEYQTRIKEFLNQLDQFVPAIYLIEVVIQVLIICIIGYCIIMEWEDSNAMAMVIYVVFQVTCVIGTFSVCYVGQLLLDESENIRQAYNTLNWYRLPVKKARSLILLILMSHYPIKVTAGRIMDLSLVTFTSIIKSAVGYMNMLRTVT

AcerOR11 [1] = molecular target: T2, AcerOR11 (Apis cerana, UniProt A0A3G2FPT9); assay: as above; format: cell-based; settings: agonist; airborne odorant, unit is dose loaded on filter paper, not a concentration; 1 s stimulus; solvent 2-propanol
T2 construct: full-length ORF, Drosophila codon-optimized synthetic gene (pUAST.attB, locus 51C); expressed in Drosophila at1 OSNs in place of DmelOR67d, with endogenous fly Orco and GCaMP6m; same length as the other OR11
T2 sequence (A0A3G2FPT9 1-394): T1 sequence (A0A7M6UWX0 1-394) with F36V, T47I, F50L, E52Q, P69A, L112I, V228I, M229V, V239I, K345N

AdorOR11 = test system: T3, AdorOR11; assay: as above; format: cell-based, Apis dorsata; settings: agonist; airborne odorant, unit is dose loaded on filter paper, not a concentration; 1 s stimulus; solvent 2-propanol
T3 construct: gene OR11; full-length ORF, Drosophila codon-optimized synthetic gene (pUAST.attB, locus 51C); expressed in Drosophila at1 OSNs in place of DmelOR67d, with endogenous fly Orco and GCaMP6m; same length as the other OR11

AcerOR11 [2] = molecular target: T2, AcerOR11; assay: transcuticular GCaMP6m calcium imaging of Drosophila antenna, single-dose screen; format: cell-based; settings: agonist; 100 μg on filter paper; 1 s stimulus; solvent 2-propanol
AflorOR11 = test system: T4, AflorOR11; assay: transcuticular GCaMP6m calcium imaging of Drosophila antenna, dose-response; format: cell-based, Apis florea; settings: agonist; airborne odorant, unit is dose loaded on filter paper, not a concentration; 1 s stimulus; solvent 2-propanol
T4 construct: gene OR11; full-length ORF, Drosophila codon-optimized synthetic gene (pUAST.attB, locus 51C); expressed in Drosophila at1 OSNs in place of DmelOR67d, with endogenous fly Orco and GCaMP6m; same length as the other OR11

Row | EC50 (AmelOR11) [µg] | EC50 (AcerOR11 [1]) [µg] | EC50 (AdorOR11) [µg] | EC50 (AflorOR11) [µg] | SMILES | calcium response (ΔF/F0) (AcerOR11 [2])
1 | 84.26 ± 15.52 | 208.5 ± 39.57 | 139.3 ± 28.55 |  | CCCC(=O)C(=O)O [2-oxovaleric acid] | 
2 |  |  |  |  | CC(=O)CCC=C(C)C [6-methyl-5-hepten-2-one] | AcerOR11 responded to a third secondary ligand: 6-methyl-5-hepten-2-one
3 | 160.5 ± 28.46 | 174.8 ± 26.05 | 173.4 ± 22.22 | 175.8 ± 29.59 | CC(=O)CCCCC/C=C/C(=O)O [9-ODA, 9-oxo-(E)-2-decenoic acid] | 
4 | 239.2 ± 72.06 | 105.8 ± 9.62 | 124.2 ± 9.58 |  | CCC/C=C/C(=O)O [trans-2-hexenoic acid] | 
